According to patent US20080014149A1, “Methods and Compositions for Imaging and Biomedical Applications” (priority 2004, published 2008):
Where two headings read alike, the source gives them in different places. One block for each substance: values may come before it.

Tests used:
[1] = R1 and R2 relaxivity from water T1/T2 measurements by NMR; assay type: physicochemical; conditions: for R1: deuterium oxide, Unity-600 MHz, 25±0.1° C.
Protocol: The R2 and R1 of 19a and 18a were calculated to show cleavage of the T2/T1 quenching detectable construct 19a generated a large enough change in R2 to allow for enzyme detection. The compound 19a represents an intact T2/T1 quenching detectable construct and the compound 18a represents a polymeric gadolinium detectable construct remainder resulting from cleavage of the reaction region. The R1 and R2 of 19a and 18a were measured in deuterium oxide in a Unity-600 MHz (Varian, Inc.) at 25±0.1° C. T1 and T2 measurements of water relaxation times were measured at various concentrations of 19a and 18a, and a plot of 1/T1 and 1/T2 was made against the concentration; the relaxivities R1 and R2 were determined by the slope of this graph using equation 1 (Caravan 1991), [formula] where 1/T1 is the relaxation rate of the water proton induced by the paramagnetic and diamagnetic species present in solution, and 1/T1 (diamagnetic) is the relaxation rate in the absence of the paramagnetic species. R1 and R2 of 18a were calculated to be 3.34 mM^−1s^− and 6.8 mM^−1s^−1 and the R1 and R2 of 19a were 4.0 mM^−1s^−1 and 21.77 mM^−1s^−1 (see FIG. 19).

[2] = Imaging DTT with 19b and 25 in agarose gels (MRI); conditions: 0.5 mM in 2% agarose hydrogels, 50 mM DTT, vials filled with PBS
Protocol: The T2/T1 quenching detectable constructs 19b and 25 are loaded into 2% agarose hydrogels at a concentration of 0.5 mM. The hydrogels have a volume of 0.5 ml and are made in 10 ml scintillation vials. After the hydrogels form, the vials are filled with PBS buffer, pH 7.4, and then imaged in either a 9.4 Tesla MRI machine or a 17.8 Tesla MRI machine (University of Florida). The best TR/TE parameters are selected from calculations using the spin-echo signal equation with respect to the relaxation times and the TR/TE. The TE and TR are chosen such that the signal intensity of the hydrogels loaded with 19b and 25 is lower than or equal to pure agarose hydrogels. These calculations are based on the R1 and R2 of 19b and 25. DTT is added to the scintillation vials to generate a 50 mM concentration of DTT in the vials. The control hydrogels for this experiment consist of hydrogels that contain 50 mM DTT, without 19b or 25. The signal intensity of the gels is measured every hour for 48 hours. The T1 and the T2 of the gels is measured every hour, the T1 is measured using an inversion recovery sequence, for which the sequence parameters will be selected based on the values of R1 and R2 of 19b and 25. The T2 will be measured using a Carr-Purcell-Meiboom-Gill (CPMG) sequence with TEs chosen from the values of R2 for 19b and 25 (Haacke 1999).

[3] = Water exchange rate of dysprosium chelate; assay type: physicochemical
Source text: This is a derivative form of DTPA. The chelator molecule of this example is considered a modification of the detectable detectable agent, wherein the chelator molecule has substitutions. The R2 of dysprosium chelates is inversely proportional to the water exchange rate, particularly for macromolecular dysprosium chelates at high field strengths (Vander 2002 and Caravan 2001) The dysprosium chelate detectable construct remainder in 25 has a greater R2 than the dysprosium chelate detectable construct remainder in 19b and also generates a larger change in tissue T2 after cleavage and diffusion away from the polymeric gadolinium detectable construct remainder. The R1 and R2 of 25 is determined using a 600 MHz NMR machine as described in Example 2.

[4] = Imaging DTT with 33 in agarose hydrogels (MRI); conditions: vials not filled with buffer
Protocol: An experimental procedure similar to that outlined in Example 4 is used to image DTT, except that the hydrogels are loaded with compound 33. The scintillation vials which contain the gels are not filled with buffer. This ensured that the cleaved dysprosium remains in the gel and that changes in T2 and signal intensity are due to changes in the rotational correlation time of dysprosium. The DTT is directly added to hydrogels as a concentrated solution. The gels are analyzed in a manner similar to Example 4. The control for this experiment is agarose hydrogels that just contain DTT. […] Problems with synthesis of 33 due to its high polydispersity may result from the free radical polymerization used to generate 28. This problem can be solved by using atom transfer radical polymerization (ATRP) to synthesize 28, using a protected methacrylic acid monomer and an (ATRP) initiator with a functional handle.

[5] = test system: T1, PEG-Peptide-DTPA-Dy containing MMP-7 substrate peptide-DTPA
T1 sequence: RPLALWRSGCG

[6] = in water, cited from earlier work
[7] = Diffusion coefficient in water (literature); assay type: physicochemical
Source text: Another example of a detectable construct of the present invention is shown in FIG. 15, wherein the detectable construct comprises a first detectable agent, comprising a metal ion and a chelator, covalently bonded to a linking region comprising PEG(polyethylene glycol) MW 80 kD, which is covalently bonded to a reaction region that is a substrate that can be cleaved by an enzyme or chemical process, which is covalently bonded to a second detectable agent comprising a chelator and a metal ion. In this particular example, the first detectable agent is Gadolinium associated with the chelator DTPA, and the second detectable agent is Dysprosium associated with the chelator DTPA. This detectable construct can be used in a method based upon the counteracting effects of T1 and T2 contrast agents on MRI signal intensity. Gadolinium is the T1 contrast agent and dysprosium is the T2 contrast agent. The dysprosium detectable agent is connected to the PEG chain through a cleavable linkage, such as a disulfide bond or an enzyme cleavable peptide linkage. Cleavage of 3a generates a low molecular weight dysprosium detectable construct remainder (4) and a high molecular weight PEG gadolinium detectable construct remainder. […]
At present, tumors can only be detected after they reach mm-cm dimensions. […]

[8] = target: MMP-9 (Homo sapiens, UniProt P14780); test: Imaging MMP-9 with 40 and 42 in agarose gels (MRI); assay type: biochemical; conditions: agarose hydrogels
[9] = test system: MMP-7 expressing SW480mat xenograft tumors; test: In vivo imaging of MMP-7 activity in mouse xenograft tumors (MRI); parameters: species or system athymic nude mice; conditions: expectation; mice with MMP-7 expressing tumors, 9.4 Tesla
Source text: MMP-7 activity is imaged in athymic nude mice which have been given MMP-7 expressing xenograft tumors, using the T2/T1 quenching detectable construct, gadolinium-PEG-RPLALWRSC-dysprosium (46, FIG. 26). This compound contains a reaction region that is the MMP-7 cleavage site, RPLALWRSC, (SEQ ID NO: 2). […] See FIG. 26 for the synthesis of 46.
The resulting tumors are allowed to grow up to a size of 1-2 cm (4-6 weeks). During this period, the mice are imaged at various times points ranging from 3 days to 6 weeks after the injection of the tumor cells, according to the following procedure: after proper anesthetization, a catheter is inserted into the tail vein of the mice, a composition comprising the detectable construct 46 is injected through the catheter and the mice are imaged every hour for 24 hours in a 9.4 Tesla MRI machine (Emory University), measuring the MRI signal intensity, tissue T1 and tissue T2.
The signal intensity and T2 of the MMP-7 expressing tumors is compared against the control tumors. If the signal intensity of the MMP-7 expressing tumors is greater than the controls, then MMP-7 successfully cleaved 46, resulting in an increase in MRJ signal intensity and the imaging of MMP-7. Furthermore, data is obtained relating to the sensitivity of the method to image early tumor activity, as well as ratiometric information relating to tumor growth.

[10] = test system: trypsin Dy only detectable construct (cleavable PEG-peptide-dysprosium, FIG. 24)
[11] = listed as DTPA-Dy detectable construct remainder

MMP-9, sequence (P14780 94-707, species assumed): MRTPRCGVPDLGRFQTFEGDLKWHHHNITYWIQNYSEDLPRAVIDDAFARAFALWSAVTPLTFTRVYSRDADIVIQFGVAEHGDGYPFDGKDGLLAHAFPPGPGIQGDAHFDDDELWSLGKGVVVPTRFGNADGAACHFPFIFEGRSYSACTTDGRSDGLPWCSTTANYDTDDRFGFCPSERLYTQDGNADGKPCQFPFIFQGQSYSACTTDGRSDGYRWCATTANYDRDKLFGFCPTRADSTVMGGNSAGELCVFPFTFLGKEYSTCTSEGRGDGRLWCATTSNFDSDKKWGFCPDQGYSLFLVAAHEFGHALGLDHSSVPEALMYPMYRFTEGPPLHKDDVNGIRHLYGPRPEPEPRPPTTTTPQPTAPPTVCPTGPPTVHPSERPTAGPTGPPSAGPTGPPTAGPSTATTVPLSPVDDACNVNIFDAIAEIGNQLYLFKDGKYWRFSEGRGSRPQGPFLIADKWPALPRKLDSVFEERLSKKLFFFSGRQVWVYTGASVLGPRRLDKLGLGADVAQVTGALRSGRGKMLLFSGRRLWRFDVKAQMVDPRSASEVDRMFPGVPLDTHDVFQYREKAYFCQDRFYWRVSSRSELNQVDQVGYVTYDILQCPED

Substance: Gadolinium-PEG-S—S-Dysprosium [Compound 19a]
decrease in R1 between 19a and 18a ([1]; 19a versus 18a): 16.5%
R1 [1]: 4.0 mM⁻¹ s⁻¹

Substance: Gadolinium-PEG-S—S-Dysprosium [Compound 19b]
MRI signal intensity of agarose gels after addition of DTT [2]: increases the signal intensity

Substance: Gadolinium-PEG-S—S-Dysprosium-Diamide [Compound 25]
water exchange rate τm, times lower than the dysprosium chelate in 19b [3]: 34 times
MRI signal intensity of agarose gels after addition of DTT [2]: increases the signal intensity

Substance: Gadolinium-Poly(Methacrylic Acid)-PEG-S—S-Dysprosium [Compound 33]
MRI signal intensity of agarose gels after addition of DTT [4]: increases the signal intensity

Substance: MMP-7
T2 signal (NMR in D2O buffer, 37 C, 4.5 hours) [5]: upon treatment of micelles with MMP-7 that the T2 signal increase by over two-fold

Substance: Thiol-PEG-DTPA-Gd [Compound 18a]
R1 [1]: 3.34 mM⁻¹ s⁻¹

ratio of diffusion coefficient to that of PEG 80 kD [7]: 17 fold
ratio of diffusion coefficient to that of PEG 80 kD [7, 11]: roughly 17 fold
Substance: dysprosium-diethylenetriaminepentaacetic (DTPA) [DTPA-dysprosium]
diffusion coefficient Dwater [6]: 3.8×10^−6 cm^2/s
diffusion coefficient Dwater [6, 11]: approximately 3.8×10^−6 cm^2/s

MRI signal intensity on cleavage by MMP-9 [8]: increase in signal intensity
Substance: gadolinium-PEG-Pro-Val-Gly-Leu-Ile-Gly-dysprosium [Compound 40]

Substance: gadolinium-PEG-RPLALWRSC-dysprosium [Compound 46]
MRI signal intensity on cleavage by MMP-7 [9]: increase in MRI signal intensity

MRI signal intensity on cleavage by MMP-9 [8]: increased signal intensity
Substance: gadolinium-poly(methacrylic acid)-Pro-Val-Gly-Leu-Ile-Gly-dysprosium [Compound 42]

Substance: trypsin
water T2 (400 MHz NMR in D2O), construct 16 mg/ml, trypsin 0.025 mg/ml [10]: After adding trypsin, T2 increases by 52.3%
